Reference: US10703746B2, “Mutant IDH1 inhibitors useful for treating cancer” (THE UNITED STATES OF AMERICA, AS REPRESENTED BY THE …, priority 2014, dated 2020)

How the values were obtained:
IDH1 R132H = IDH1 R132H (Homo sapiens, UniProt O75874, R132H); experiment: IDH1 R132H enzymatic assay (NADPH depletion coupled to diaphorase/resazurin); format: biochemical
IDH1 R132C = IDH1 R132C (Homo sapiens, UniProt O75874, R132C); experiment: IDH1 R132C enzymatic assay (NADPH depletion coupled to diaphorase/resazurin); format: biochemical
IDH1 R132C, sequence (O75874 whole entry R132C): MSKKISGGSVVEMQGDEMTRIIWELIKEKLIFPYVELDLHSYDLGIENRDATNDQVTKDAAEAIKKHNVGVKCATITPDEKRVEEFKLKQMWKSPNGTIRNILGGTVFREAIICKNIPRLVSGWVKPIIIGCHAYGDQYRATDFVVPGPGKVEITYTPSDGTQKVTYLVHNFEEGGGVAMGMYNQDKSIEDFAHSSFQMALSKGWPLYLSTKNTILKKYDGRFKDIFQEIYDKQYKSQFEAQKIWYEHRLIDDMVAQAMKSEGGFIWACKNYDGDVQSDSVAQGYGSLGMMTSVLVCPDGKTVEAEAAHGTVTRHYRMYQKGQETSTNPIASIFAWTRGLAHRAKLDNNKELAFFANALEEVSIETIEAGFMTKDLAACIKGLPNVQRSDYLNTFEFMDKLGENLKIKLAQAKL
In short: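 NADPH depletion, read via diaphorase/resazurin coupling, after adding substrate at 0.6 mM α-KG and 0.012 mM NADPH. Beforehand, 0.00032 mg/mL enzyme sat with compound 30 min at room temperature in pH 6.5 potassium phosphate buffer with MgCl2, glycerol and BSA.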

[1] = enzymatic inhibition, IDH1 R132H
[2] = enzymatic inhibition, IDH1 R132C
[3] = IDH1 R132H enzymatic inhibition, IC50 class
[4] = IDH1 R132C enzymatic inhibition, IC50 class

IDH1 R132H, sequence (O75874 whole entry R132H): as the sequence (O75874 whole entry R132C) above, with C132H counted along it

Row | SMILES | IC50 (IDH1 R132H; [1]) | IC50 (IDH1 R132C; [2]) | IC50 (IDH1 R132H; [3]) | IC50 (IDH1 R132C; [4])
1 | CCc1cccc(CC)c1-n1c(C=C(C)C)c(C(=O)N2CCNCC2CC(=O)O)cc(-c2nc(-c3ccc(Cl)cc3)cs2)c1=O (centres unmarked) [Compound 599] | < 300 nM | < 300 nM |  | 
2 | Cc1ccc(CN2CCN(C)CC2)cc1-n1c2c(cc(-c3nc(-c4ccc(Cl)cc4)cs3)c1=O)C(=O)CC(C)(C)C2 [Compound 460] | 5000 to 20000 nM | 5000 to 20000 nM |  | 
3 | COc1ccc(OC)c(-n2c3c(cc(-c4ccn(-c5ccccc5)n4)c2=O)C(=O)CC(C)(C)C3)c1 [Compound 158] |  |  | 1000 to 5000 nM | 1000 to 5000 nM
4 | CCCC1CN(C(=O)c2cc(-c3nc(-c4ccc(Cl)cc4)cs3)c(=O)n(-c3c(CC)cccc3CC)c2C=C(C)C)CCN1 (centres unmarked) [Compound 542] | < 300 nM | < 300 nM |  | 
5 | CCc1cccc(CC)c1-n1c(C(C)C)c(C(=O)N2CCN[C@@H](CO)C2)cc(-c2nc(-c3ccc(Cl)cc3)cs2)c1=O [Compound 229] |  |  | 300 to 1000 nM | < 300 nM
6 | CCc1cccc(CC)c1-n1c(CC(C)C)c(C(=O)N2CCNCC2)cc(-c2nc(-c3ccc(C#N)cc3)c(C)s2)c1=O [Compound 235] |  |  | < 300 nM | < 300 nM
7 | COc1ccc(OC)c(-n2c3c(cc(-c4nc(-c5ccc(Cl)cc5)c[nH]4)c2=O)C(=O)CC(C)(C)C3)c1 [Compound 291] |  |  | 1000 to 5000 nM | 1000 to 5000 nM
8 | CCc1cccc(CC)c1-n1c(CC(C)C)c(C(=O)N2CCNCC2)cc(-c2nc(-c3ccc(Cl)cc3)c(C(=O)N(C)C)s2)c1=O [Compound 464] | 300 to 1000 nM | 1000 to 5000 nM |  | 
9 | Cc1c(N)cccc1-n1c2c(cc(-c3nc(-c4ccc(Cl)cc4)cs3)c1=O)C(=O)CC(C)(C)C2 [Compound 288] |  |  | 1000 to 5000 nM | 1000 to 5000 nM
10 | COc1cccc(C)c1-n1c2c(cc(-c3nc(-c4ccc(Cl)cc4)cs3)c1=O)C(=O)CC(C)(C)C2 [Compound 52] |  |  | 1000 to 5000 nM | 1000 to 5000 nM
11 | CC1(C)CC(=O)c2cc(-c3nc(-c4ccc(Cl)cc4)cs3)c(=O)n(-c3ccccc3N)c2C1 [Compound 301] |  |  | 1000 to 5000 nM | 1000 to 5000 nM
12 | COc1cccc(OC)c1-n1c2c(cc(-c3nc(-c4ccc(Cl)cc4)cs3)c1=O)C(=O)CC(C)(C)C2 [Compound 59] |  |  | 1000 to 5000 nM | 1000 to 5000 nM
13 | CCc1cccc(CC)c1-n1c(CC(C)C)c(C(=O)NC[C@@H](C)O)cc(-c2nc(-c3ccc(Cl)cc3)cs2)c1=O [Compound 276] |  |  | 300 to 1000 nM | < 300 nM
14 | CCc1cccc(CC)c1-n1c(CC2CCCCC2)c(C(=O)N2CCNCC2)cc(-c2nc(-c3ccc(Cl)cc3)cs2)c1=O [Compound 612] | < 300 nM | < 300 nM |  | 
15 | CCc1cccc(CC)c1-n1c2c(cc(-c3nc(-c4ccccc4C(F)(F)F)cs3)c1=O)C(=O)CC(C)(C)C2 [Compound 230] |  |  | 5000 to 20000 nM | 1000 to 5000 nM
16 | CCOc1ccccc1-n1c(C=C(C)C)c(C(=O)N2CCNCC2)cc(-c2nc(-c3ccc(Cl)cc3)cs2)c1=O [Compound 572] | < 300 nM | < 300 nM |  | 
17 | CCc1cccc(CC)c1-n1c2c(cc(-c3nc(-c4ccc(Cl)cc4)c(C)s3)c1=O)C(=O)CC(C)(C)C2 [Compound 251] |  |  | 300 to 1000 nM | < 300 nM
18 | O=C1CCCc2c1cc(-c1nc(-c3ccc(Cl)cc3)cs1)c(=O)n2-c1ccncc1 [Compound 368] |  |  | > 20000 nM | > 20000 nM
19 | CCc1cccc(CC)c1-n1c2c(cc(-c3nc(-c4ccc(Cl)cc4)cs3)c1=O)C(=O)N(C)C2C(C)C (centres unmarked) [Compound 338] |  |  | 1000 to 5000 nM | 300 to 1000 nM
20 | CCc1cccc(CC)c1-n1c(CC(C)C)c(C(=O)NC[C@@H](N)C(=O)O)cc(-c2nc(-c3ccc(Cl)cc3)cs2)c1=O [Compound 172] |  |  | 300 to 1000 nM | < 300 nM
21 | Cc1cccc(CN2CCN(C)CC2)c1-n1c2c(cc(-c3nc(-c4ccc(Cl)cc4)cs3)c1=O)C(=O)CC(C)(C)C2 [Compound 17] |  |  | 5000 to 20000 nM | 5000 to 20000 nM
22 | CCc1cccc(CC)c1-n1c(C)c(C(=O)N2CCCC(N)C2)cc(-c2nc(-c3ccc(Cl)cc3)cs2)c1=O (centres unmarked) [Compound 223] |  |  | 1000 to 5000 nM | < 300 nM
23 | CCc1cccc(CC)c1-n1c(CC(C)C)c(C(=O)N[C@@H](CO)c2ccccc2)cc(-c2nc(-c3ccc(Cl)cc3)cs2)c1=O [Compound 20] |  |  | 300 to 1000 nM | < 300 nM

Row | SMILES | IC50 (IDH1 R132H; [1]) | IC50 (IDH1 R132C; [2]) | IC50 (IDH1 R132H; [3]) | IC50 (IDH1 R132C; [4])
24 | COc1ccc(OC)c(-n2c3c(cc(-c4nc(C)cs4)c2=O)C(=O)CC(C)(C)C3)c1 [Compound 124] |  |  | > 20000 nM | 5000 to 20000 nM
25 | CCc1cccc(CC)c1-n1c(CC(C)C)c(C(=O)NC2CCCCC2O)cc(-c2nc(-c3ccc(Cl)cc3)cs2)c1=O (centres unmarked) [Compound 159] |  |  | 1000 to 5000 nM | 1000 to 5000 nM
26 | CCc1cccc(OC)c1-n1c(C=C(C)C)c(C(=O)N2CCNCC2)cc(-c2nc(-c3ccc(Cl)cc3)cs2)c1=O [Compound 642] |  |  | < 300 nM | < 300 nM
27 | CCc1cccc(CC)c1-n1c(C=C(C)C)c(C(=O)N2CCNCC2)cc(-c2nc(-c3ccc(C(F)F)nc3)cs2)c1=O [Compound 546] | < 300 nM | < 300 nM |  | 
28 | CCc1cccc(CC)c1-n1c2c(cc(-c3nc(C4=CCN(C)CC4)c(C)s3)c1=O)C(=O)CC(C)(C)C2 [Compound 208] |  |  | > 20000 nM | 5000 to 20000 nM
29 | COc1ccc(OC)c(-n2c3c(cc(-c4nc(-c5ccccc5)cs4)c2=O)C(=O)CC(C)(C)C3)c1 [Compound 225] |  |  | 1000 to 5000 nM | 1000 to 5000 nM
30 | CCc1cccc(CC)c1-n1c(CC(C)C)c(C(=O)N2CCNCC2)cc(-n2cc(-c3ccc(Cl)cc3)cn2)c1=O [Compound 658] |  |  | 5000 to 20000 nM | 5000 to 20000 nM
31 | COc1cccc(CN2CCN(C)CC2)c1-n1c2c(cc(-c3nc(-c4ccc(Cl)cc4)cs3)c1=O)C(=O)CC(C)(C)C2 [Compound 319] |  |  | 5000 to 20000 nM | 5000 to 20000 nM
32 | CC1(C)CC(=O)c2cc(-c3nc(-c4ccc(Cl)cc4)cs3)c(=O)n(-c3ccccc3CO)c2C1 [Compound 269] |  |  | 5000 to 20000 nM | 1000 to 5000 nM
33 | COc1cccc(Cl)c1-n1c(C=C(C)C)c(C(=O)N2CCNCC2)cc(-c2nc(-c3ccc(Cl)cc3)cs2)c1=O [Compound 397] |  |  | < 300 nM | < 300 nM
34 | CC1(C)CC(=O)c2cc(-c3nc(-c4ccc(Cl)cc4)cs3)c(=O)n(-c3ccccc3Oc3ccccc3)c2C1 [Compound 49] |  |  | < 300 nM | < 300 nM
35 | COc1cc(C(=O)O)ccc1-n1c2c(cc(-c3nc(-c4ccc(Cl)cc4)cs3)c1=O)C(=O)CC(C)(C)C2 [Compound 136] |  |  | > 20000 nM | > 20000 nM
36 | CCc1cccc(CC)c1-n1c2c(cc(-c3nc(-c4cccnc4)cs3)c1=O)C(=O)CC(C)(C)C2 [Compound 119] |  |  | 5000 to 20000 nM | 1000 to 5000 nM
37 | CCc1cccc(CC)c1-n1c(CC)c(C(=O)O)cc(-c2nc(-c3ccc(Cl)cc3)cs2)c1=O [Compound 236] |  |  | 1000 to 5000 nM | 5000 to 20000 nM
38 | CC(C)c1ccccc1-n1c2c(cc(-c3nc(-c4ccc(Cl)cc4)cs3)c1=O)C(=O)CC(C)(C)C2 [Compound 178] |  |  | 300 to 1000 nM | 300 to 1000 nM
39 | COc1ccc(OC)c(-n2c3c(cc(-n4cc(-c5ccccc5)cn4)c2=O)C(=O)CC(C)(C)C3)c1 [Compound 120] |  |  | > 20000 nM | > 20000 nM
40 | CCc1cccc(CC)c1-n1c(C2CCCO2)c(C(=O)N2CCNCC2)cc(-c2nc(-c3ccc(Cl)cc3)cs2)c1=O (centres unmarked) [Compound 457] | < 300 nM | < 300 nM |  | 
41 | CCc1cccc(CC)c1-n1c(C=C(C)C)c(C(=O)N2CCNCC2)cc(-c2nc(-c3ccc(C(F)(F)F)cc3)cs2)c1=O [Compound 581, 1-(2,6-diethylphenyl)-6-(2-methylprop-1-en-1-yl)-5-(piperazine-1-carbonyl)-3-(4-(4-(trifluoromethyl)phenyl)thiazol-2-yl)pyridin-2(1H)-one] | < 300 nM | < 300 nM |  | 
42 | CCc1cccc(CC)c1-n1c(C)c(C(=O)NCCOC)cc(-c2nc(-c3ccc(Cl)cc3)cs2)c1=O [Compound 169] |  |  | 1000 to 5000 nM | 300 to 1000 nM
43 | CCc1cccc(CC)c1-n1c(C)c(C(=O)N(C)CCO)cc(-c2nc(-c3ccc(Cl)cc3)cs2)c1=O [Compound 308] |  |  | 1000 to 5000 nM | 1000 to 5000 nM
44 | CCc1cccc(CC)c1-n1c(CC(C)C)c(C(=O)N2CCNCC2)cc(-c2nc(-c3ccc(C(F)F)cc3)c(C)s2)c1=O [Compound 517] | < 300 nM | < 300 nM |  | 
45 | CCc1cccc(CC)c1-n1c(CC2CCCO2)c(C(=O)N2CCNCC2)cc(-c2nc(-c3ccc(Cl)cc3)cs2)c1=O (centres unmarked) [Compound 506] | < 300 nM | < 300 nM |  | 
46 | CCc1cccc(CC)c1-n1c(C=C(C)C)c(C(=O)N2CCNC(C(F)(F)F)C2)cc(-c2nc(-c3ccc(Cl)cc3)cs2)c1=O (centres unmarked) [Compound 396] |  |  | < 300 nM | < 300 nM
